From article PMC10584170, “Machine learning-based phenotypic imaging to characterise the targetable biology of Plasmodium falciparum male gametocytes for the development of transmission-blocking antimalarials” (PLOS Pathogens, 2023)

What was measured:
[1] = test system: P. falciparum male gametocytes; experiment: P. falciparum Dual Gamete Formation Assay (PfDGFA), male readout (exflagellation); type: cell-based, Plasmodium falciparum NF54; details: for IC50: this study, read-out: Pf DGFA IC50 MALE
Method in brief: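 Two sex-specific readouts come from one well: male exflagellation centres recorded by brightfield video right after activation, and female gametes scored by Cy3-anti-Pfs25 fluorescence after 24 h at 28°C.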

[2] = test system: P. falciparum male gametocytes; experiment: PhIDDLI screening assay, 24 h preincubation at 10xIC50, tubulin/DAPI imaging of male gametogenesis; type: cell-based, Plasmodium falciparum NF54; details: approximately 10xIC50, fixed 20 min post-induction
Experimental: Mature gametocytes were treated for 24h with approximately 10xIC50 of test compounds or DMSO as a solvent control. Male gametogenesis was then induced by lowering the temperature from 37°C to ~20°C and adding xanthurenic acid. 20min later, when male gametogenesis (exflagellation) could be expected to peak, all samples were fixed. A sample of non-induced DMSO-treated gametocytes was fixed with 4% paraformaldehyde to provide an unactivated gametocyte control for comparison. The cells were then processed for immunofluorescence using an antibody against alpha-tubulin II and DNA staining with 4′,6-diamidino-2-phenylindole (DAPI) and visualised by fluorescence microscopy. Tubulin-bright cells from each treated sample were imaged and captured at random.
Cells were identified using a semi-automated pipeline established in the ICY BioImageAnalysis (https://icy.bioimageanalysis.org/) protocols module. Images and accompanying bounding boxes representing the outlines of identified cells were then passed to the PhIDDLI pipeline. PhIDDLI consists of several open source image processing and AI/ML modules connected for seamless processing, clustering and visualisation of cellular phenotypes (Fig 3A). […] To focus on the overall cellular phenotype rather than potentially confounding variable immunostaining intensities between experimental replicates, cells were transformed so that the range of staining intensities for each channel were normalised to fall between a 0–255 pixel intensity value. Then, using the Albumentations module (https://albumentations.ai/) to augment the dataset and control for cells in different orientations, each extracted cell image was rotated 90, 180 and 270 degrees and mirrored so that each cell was represented eight different times in the dataset. The augmented images were then passed to the EffcientNet-B1 module (https://github.com/tensorflow/tpu/tree/master/models/official/efficientnet) (a pretrained neural network developed for image processing) which extracted 1,000 distinct numerical features from each individual cell image. The EfficientNet-B1 was selected from amongst the other EfficientNet models due to its input image size (240 pixels) best matching the size of the individual cell images in the dataset, therefore ensuring maximal input data whilst allowing acceptable computation time on a desktop computer. […]
Mature gametocyte cultures were divided into 100 μl “microcultures” in pre-warmed 1.5 ml tubes also containing 100 μl complete culture medium with test compounds at a final concentration of 10xIC50 or 0.5% DMSO as a solvent control. Tubes were gassed and incubated at 37°C for 24 h. The entire compound library was screened once, spread over four different experiments, each with two DMSO control tubes. An 8% formaldehyde solution was prepared by diluting 16% methanol-free formaldehyde in an equal volume of phosphate-buffered saline (PBS). In each experiment, one DMSO control tube was fixed with equal volume of 8% formaldehyde (4% final concentration) at 37°C to provide an “unactivated” gametocyte control. Gametogenesis was then triggered in the remaining DMSO control tube and all compound tubes by adding 10 μl ookinete medium, and they were immediately incubated at room temperature. After 20 min (when exflagellation is maximal), all remaining tubes were fixed for 30 min.
100 μl of the fixed cell suspensions were added to wells of a 24 well plate containing 1ml PBS and a poly-l-lysine-coated glass coverslip.

HepG2 cells = details: cited from earlier work; for FGAA TOX50 HepG2: HepG2 value reported with the FGAA screen, ref Miguel-Blanco et al 2017; for ODA TOX50 HepG2: HepG2 value reported with the ODA screen, ref Delves et al 2019
[3] = test system: P. berghei ookinete development; experiment: P. berghei Ookinete Development Assay (PbODA); type: cell-based, Plasmodium berghei; details: Mean TOX HepG2 over Pb ODA value; GREEN = >10-fold; RED = <10-fold
[4] = test system: P. falciparum protein kinase G (PfPKG); details: cited from earlier work

Compound | Cytotox ratio Pf Male [1] | IC50 [1] [nM] | Cellular phenotype of male gametocytes [2] | FGAA TOX50 HepG2 (HepG2 cells) [µM] | Cytotox ratio Pb Ookinete [3] | activity against recombinant PfPKG [4] | ODA TOX50 HepG2 (HepG2 cells) [µM]
CC(C)(CNC(=O)[C@H]1CCCCN1)c1nc(-c2ccc(Cl)c(O)c2)c(-c2ccncc2)[nH]1.Cl [TC04] | 24.9 | 1630 | unactivated phenotype consistent with total arrest of gametogenesis | 28.96 |  |  | 
CC(C)(CN)c1nc(-c2ccc(Br)c(O)c2)c(-c2ccncc2)[nH]1.Cl [TC13] | 43.5 | 1480 | unactivated phenotype consistent with total arrest of gametogenesis | 45.82 | 38479.3 | had activity | 47.315
Cl.NCC1(c2nc(-c3ccc(Cl)c(O)c3)c(-c3ccncc3)[nH]2)CCCCC1 [TC41] | 26.9 | 850 | unactivated phenotype consistent with total arrest of gametogenesis | 11.9 | 14844.9 |  | 46.774
